Results from ChEMBL document CHEMBL1201862, “PubChem BioAssay data set” (2004).
The source made the active and inactive calls.

What was measured:
[1] = target: Beta-adrenergic receptor kinase 1 (Homo sapiens, UniProt P25098); assay: GRK2 inhibitors displacing RNA aptamer, dose response, biochemical, flow cytometry beads, FAM-aptamer, powder set 1 (AID 588720)
[2] = target: T1, Carboxy-terminal domain RNA polymerase II polypeptide A small phosphatase 1 (Homo sapiens, UniProt Q9GZU7); assay: inhibitors of CTDSP1, concentration-response testing, biochemical assay, absorbance-based, actives from ultra-high-throughput screening (AID 540297); type: functional
T1 sequence (Q9GZU7 whole entry): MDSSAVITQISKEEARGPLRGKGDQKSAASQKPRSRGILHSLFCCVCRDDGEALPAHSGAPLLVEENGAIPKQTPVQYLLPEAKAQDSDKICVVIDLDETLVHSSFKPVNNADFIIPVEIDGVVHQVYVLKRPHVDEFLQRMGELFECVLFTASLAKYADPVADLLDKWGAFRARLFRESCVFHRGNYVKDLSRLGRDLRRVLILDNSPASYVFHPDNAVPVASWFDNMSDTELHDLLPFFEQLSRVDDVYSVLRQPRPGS

HEK293 [3] = assay: cells; type: functional, cell-based; conditions: Homo sapiens
BJ [4] = assay: cytotoxicity toward BJ-TERT-LT-ST fibroblasts, dose response, cell-based, RAS-independent, luminescence (AID 1935); type: functional; conditions: Homo sapiens;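 also: BJ fibroblasts immortalized with TERT plus LT and ST oncogenes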
Protein RecA = target: T2, Protein RecA (Mycobacterium tuberculosis, UniProt P9WHJ3); assay: Fluorescence Cell-Free Homogeneous Dose Retest to Identify Inhibitors of RecA-Intein Splicing Activity. [Related pubchem assays (depositor defined):AID2097, AID2223, AID489010, AID492950]; type: functional
T2 sequence (P9WHJ3 whole entry): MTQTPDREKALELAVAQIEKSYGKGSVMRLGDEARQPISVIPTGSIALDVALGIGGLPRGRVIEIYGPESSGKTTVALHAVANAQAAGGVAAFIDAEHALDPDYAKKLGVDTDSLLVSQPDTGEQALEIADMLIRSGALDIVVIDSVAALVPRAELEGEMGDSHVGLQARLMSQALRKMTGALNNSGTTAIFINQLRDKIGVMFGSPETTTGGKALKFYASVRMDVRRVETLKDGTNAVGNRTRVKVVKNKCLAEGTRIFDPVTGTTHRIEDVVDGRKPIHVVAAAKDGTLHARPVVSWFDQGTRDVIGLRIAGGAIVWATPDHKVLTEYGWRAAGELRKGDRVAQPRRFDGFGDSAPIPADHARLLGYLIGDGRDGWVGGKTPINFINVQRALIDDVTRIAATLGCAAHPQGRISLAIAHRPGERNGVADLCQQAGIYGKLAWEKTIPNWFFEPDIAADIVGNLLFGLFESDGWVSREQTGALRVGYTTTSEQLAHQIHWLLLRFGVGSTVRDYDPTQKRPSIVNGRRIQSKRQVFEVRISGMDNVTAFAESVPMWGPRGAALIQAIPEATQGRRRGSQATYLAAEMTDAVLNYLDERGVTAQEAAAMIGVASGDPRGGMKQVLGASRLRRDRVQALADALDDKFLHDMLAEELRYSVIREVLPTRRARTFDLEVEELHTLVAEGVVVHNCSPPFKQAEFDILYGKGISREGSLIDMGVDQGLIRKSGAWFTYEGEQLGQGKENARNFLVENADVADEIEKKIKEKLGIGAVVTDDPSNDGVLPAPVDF

HEK293 [5] = assay: NOD1 signaling inhibitors, primary screen, cell-based, luminescence, uHTS (AID 1578); type: functional; conditions: Homo sapiens
HEK293 [6] = assay: NOD2 signaling inhibitors in MDP-stimulated cells, cell-based, uHTS, luminescence (AID 2001); type: functional; conditions: Homo sapiens
[7] = target: Nucleotide-binding oligomerization domain-containing protein 2 (Homo sapiens, UniProt Q9HC29); assay: NOD2 signaling inhibitors, cell-based, luminescence, uHTS, HEK293 (AID 1566); type: functional
[8] = target: Sphingosine 1-phosphate receptor 1 (Homo sapiens, UniProt P21453); type: functional;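 also: Tango beta-arrestin reporter U2OS cells stimulated with S1P near its EC80; inhibitor potency meaning antagonism of receptor activation by the natural agonist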
HEK293 [9] = assay: cells; type: functional, cell-based; conditions: Homo sapiens; remark: listed apart in the source
[10] = target: T3, Replicative DNA helicase DnaB (Mycobacterium tuberculosis, UniProt P9WMR3); assay: DnaB intein splicing inhibitors, dose response, biochemical, cell-free fluorescence (AID 449749); type: functional
T3 sequence (P9WMR3 whole entry): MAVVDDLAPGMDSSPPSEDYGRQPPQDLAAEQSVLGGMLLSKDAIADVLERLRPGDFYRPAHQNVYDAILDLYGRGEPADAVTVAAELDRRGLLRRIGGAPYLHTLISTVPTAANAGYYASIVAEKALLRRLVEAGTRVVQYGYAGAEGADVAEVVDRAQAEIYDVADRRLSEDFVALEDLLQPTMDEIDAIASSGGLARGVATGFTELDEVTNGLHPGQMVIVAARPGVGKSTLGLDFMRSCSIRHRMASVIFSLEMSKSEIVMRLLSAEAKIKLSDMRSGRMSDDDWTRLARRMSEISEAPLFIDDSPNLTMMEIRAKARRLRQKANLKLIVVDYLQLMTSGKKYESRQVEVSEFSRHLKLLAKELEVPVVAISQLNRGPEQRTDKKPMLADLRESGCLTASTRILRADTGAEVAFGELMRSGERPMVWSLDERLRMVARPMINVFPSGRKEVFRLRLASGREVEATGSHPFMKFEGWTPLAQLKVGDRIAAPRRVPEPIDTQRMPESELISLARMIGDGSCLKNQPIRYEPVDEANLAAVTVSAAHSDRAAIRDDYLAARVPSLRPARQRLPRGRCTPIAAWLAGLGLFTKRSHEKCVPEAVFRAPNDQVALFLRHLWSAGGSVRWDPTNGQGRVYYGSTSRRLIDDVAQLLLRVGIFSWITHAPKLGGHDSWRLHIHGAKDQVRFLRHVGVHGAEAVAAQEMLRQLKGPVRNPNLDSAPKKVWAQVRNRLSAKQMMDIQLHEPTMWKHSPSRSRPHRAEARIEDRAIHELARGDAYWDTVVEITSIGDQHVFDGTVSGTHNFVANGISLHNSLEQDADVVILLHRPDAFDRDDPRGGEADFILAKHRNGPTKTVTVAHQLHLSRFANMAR

BJ [11] = assay: cells; type: functional, cell-based; conditions: Homo sapiens
BJ [12] = assay: cytotoxicity toward BJ-TERT fibroblasts, dose response, cell-based, RAS-independent, luminescence (AID 1933); type: functional; conditions: Homo sapiens
[13] = Intein inhibitors as potential Tuberculosis drugs, a cytotoxicity screen. [Related pubchem assays (depositor defined):AID2221, AID2223, AID434968, AID435010, AID449749, AID449750, AID489010]; type: functional
[14] = nonselective inhibitors of cellular cAMP signaling, dose response, counter-screen for MC4R biased antagonist project, cell-based, TR-FRET cAMP detection (AID 602305); type: functional;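 also: U2OS cells stimulated with forskolin near its EC80 as the cAMP inducer; potency is for inhibition of forskolin-stimulated cAMP signaling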
[15] = cytotoxicity toward DRD oncogenic fibroblasts, dose response, cell-based, non-viral oncogenic, luminescence (AID 1934); type: functional; conditions: Homo sapiens
[16] = target: Sphingosine 1-phosphate receptor 4 (Homo sapiens, UniProt O95977); assay: Fluorescence dose response cell-based high throughput screening assay for antagonists of the Sphingosine 1-Phosphate Receptor 4 (S1P4). [Related pubchem assays: 1524 (Confirmation in triplicates.), 1510 (Primary screen.)]; type: functional
Melanocortin receptor 4 = Melanocortin receptor 4 (Homo sapiens, UniProt P32245); assay: MC4R antagonist potency on cAMP, dose response, cell-based, TR-FRET, biased antagonists (AID 602298); type: functional;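 also: antagonist potency against agonist-stimulated cAMP production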
HEK293 [17] = assay: cells; type: functional, cell-based; conditions: Homo sapiens; remark: listed apart in the source
HEK293 [18] = assay: cells; type: functional, cell-based; conditions: Homo sapiens; remark: listed apart in the source
[19] = Luminescence Cell-Based Dose Confirmation HTS to Identify Activators of 5'UTR Stem-Loop Driven Alpha-Synuclein mRNA Translation in H4 Neuroglioblastoma Cells. [Related pubchem assays: 1829 (Project Summary), 1814 (Primary HTS)]; type: functional
H4 = assay: Luminescence Cell-Based Dose Response HTS to Identify Activators of 5'UTR Stem-Loop Driven Prion Protein mRNA Translation in H4 Neuroglioblastoma Cells. [Related pubchem assays: 1829 (Project Summary), 1814 (Primary HTS)]; type: functional; conditions: Homo sapiens
[20] = target: Nuclear receptor subfamily 0 group B member 1 (Homo sapiens, UniProt P51843); assay: Luminescence-based cell-based high throughput dose response assay for inhibitors of the orphan nuclear receptor subfamily 0, group B, member 1 (DAX1; NR0B1). [Related pubchem assays (depositor defined):AID504766, AID504790]; type: functional
[21] = Luminescence Cell-Based Dose Response HTS to Identify Activators of Luciferase Translation or Activity in H4 […] Cells. [Related pubchem assays: 1829 (Project Summary), 1814 (Primary HTS)]; type: functional
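For CC50 in this document: cells exposed to compound for 72 hours before luminescence readout.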

Sequence of Sphingosine 1-phosphate receptor 1 (P21453 whole entry): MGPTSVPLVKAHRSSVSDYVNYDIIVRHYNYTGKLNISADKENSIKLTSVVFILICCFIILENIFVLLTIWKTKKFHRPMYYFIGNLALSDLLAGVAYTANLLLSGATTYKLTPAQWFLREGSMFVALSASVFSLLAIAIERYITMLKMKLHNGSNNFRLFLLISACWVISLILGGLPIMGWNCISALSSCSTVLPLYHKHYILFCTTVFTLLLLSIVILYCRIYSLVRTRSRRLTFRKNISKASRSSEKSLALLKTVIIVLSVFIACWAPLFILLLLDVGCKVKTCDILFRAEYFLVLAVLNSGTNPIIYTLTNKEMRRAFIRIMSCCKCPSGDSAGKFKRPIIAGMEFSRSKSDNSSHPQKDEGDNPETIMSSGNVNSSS
Sequence of Nuclear receptor subfamily 0 group B member 1 (P51843 whole entry): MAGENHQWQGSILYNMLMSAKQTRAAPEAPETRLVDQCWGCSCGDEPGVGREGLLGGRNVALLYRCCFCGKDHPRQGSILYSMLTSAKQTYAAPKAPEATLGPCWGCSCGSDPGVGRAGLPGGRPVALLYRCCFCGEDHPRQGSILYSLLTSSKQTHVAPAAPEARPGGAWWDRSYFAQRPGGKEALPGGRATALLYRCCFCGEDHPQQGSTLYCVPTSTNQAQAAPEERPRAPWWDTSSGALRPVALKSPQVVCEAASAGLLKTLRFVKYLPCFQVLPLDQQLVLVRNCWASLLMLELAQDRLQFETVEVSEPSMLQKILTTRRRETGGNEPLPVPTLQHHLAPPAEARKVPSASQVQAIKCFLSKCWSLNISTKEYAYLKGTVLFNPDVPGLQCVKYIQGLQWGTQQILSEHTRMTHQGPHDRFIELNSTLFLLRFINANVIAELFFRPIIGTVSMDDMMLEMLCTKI
Sequence of Beta-adrenergic receptor kinase 1 (P25098 whole entry, the tested form may be a part): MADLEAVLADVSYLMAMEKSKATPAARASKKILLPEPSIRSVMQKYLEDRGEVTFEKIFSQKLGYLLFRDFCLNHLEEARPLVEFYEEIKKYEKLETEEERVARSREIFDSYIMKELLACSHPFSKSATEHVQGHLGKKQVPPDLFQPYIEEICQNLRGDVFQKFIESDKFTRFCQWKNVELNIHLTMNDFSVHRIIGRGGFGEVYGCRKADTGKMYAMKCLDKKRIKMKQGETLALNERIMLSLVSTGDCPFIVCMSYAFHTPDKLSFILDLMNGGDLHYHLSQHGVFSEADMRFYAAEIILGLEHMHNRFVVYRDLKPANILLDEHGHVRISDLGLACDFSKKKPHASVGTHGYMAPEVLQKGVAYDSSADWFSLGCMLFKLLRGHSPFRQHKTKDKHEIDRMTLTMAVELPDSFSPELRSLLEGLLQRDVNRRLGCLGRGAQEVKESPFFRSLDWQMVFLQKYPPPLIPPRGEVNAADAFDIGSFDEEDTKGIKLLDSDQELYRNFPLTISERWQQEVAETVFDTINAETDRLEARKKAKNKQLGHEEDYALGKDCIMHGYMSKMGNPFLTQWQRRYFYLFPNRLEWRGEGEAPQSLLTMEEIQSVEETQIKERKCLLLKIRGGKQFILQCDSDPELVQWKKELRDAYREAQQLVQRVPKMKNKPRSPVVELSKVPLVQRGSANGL
Sequence of Sphingosine 1-phosphate receptor 4 (O95977 whole entry): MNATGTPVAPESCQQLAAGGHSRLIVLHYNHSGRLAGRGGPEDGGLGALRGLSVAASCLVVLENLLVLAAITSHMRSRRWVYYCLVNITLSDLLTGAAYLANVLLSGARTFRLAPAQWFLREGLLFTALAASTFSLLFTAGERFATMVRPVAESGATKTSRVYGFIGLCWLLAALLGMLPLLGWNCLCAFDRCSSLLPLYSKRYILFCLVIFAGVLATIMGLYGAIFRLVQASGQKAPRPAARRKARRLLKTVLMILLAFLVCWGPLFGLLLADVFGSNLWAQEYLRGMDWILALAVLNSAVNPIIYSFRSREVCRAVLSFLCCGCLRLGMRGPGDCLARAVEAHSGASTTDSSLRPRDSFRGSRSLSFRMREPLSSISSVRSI
Sequence of Melanocortin receptor 4 (P32245 whole entry): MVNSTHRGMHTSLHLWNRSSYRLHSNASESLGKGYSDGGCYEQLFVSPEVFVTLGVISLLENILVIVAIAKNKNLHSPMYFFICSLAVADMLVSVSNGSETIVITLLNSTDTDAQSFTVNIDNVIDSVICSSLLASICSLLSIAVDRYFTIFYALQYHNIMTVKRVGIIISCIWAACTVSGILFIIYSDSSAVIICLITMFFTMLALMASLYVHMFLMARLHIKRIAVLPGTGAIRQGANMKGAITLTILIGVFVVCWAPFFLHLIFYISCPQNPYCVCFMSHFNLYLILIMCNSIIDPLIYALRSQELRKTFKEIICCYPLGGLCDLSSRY
Sequence of Nucleotide-binding oligomerization domain-containing protein 2 (Q9HC29 whole entry, the tested form may be a part): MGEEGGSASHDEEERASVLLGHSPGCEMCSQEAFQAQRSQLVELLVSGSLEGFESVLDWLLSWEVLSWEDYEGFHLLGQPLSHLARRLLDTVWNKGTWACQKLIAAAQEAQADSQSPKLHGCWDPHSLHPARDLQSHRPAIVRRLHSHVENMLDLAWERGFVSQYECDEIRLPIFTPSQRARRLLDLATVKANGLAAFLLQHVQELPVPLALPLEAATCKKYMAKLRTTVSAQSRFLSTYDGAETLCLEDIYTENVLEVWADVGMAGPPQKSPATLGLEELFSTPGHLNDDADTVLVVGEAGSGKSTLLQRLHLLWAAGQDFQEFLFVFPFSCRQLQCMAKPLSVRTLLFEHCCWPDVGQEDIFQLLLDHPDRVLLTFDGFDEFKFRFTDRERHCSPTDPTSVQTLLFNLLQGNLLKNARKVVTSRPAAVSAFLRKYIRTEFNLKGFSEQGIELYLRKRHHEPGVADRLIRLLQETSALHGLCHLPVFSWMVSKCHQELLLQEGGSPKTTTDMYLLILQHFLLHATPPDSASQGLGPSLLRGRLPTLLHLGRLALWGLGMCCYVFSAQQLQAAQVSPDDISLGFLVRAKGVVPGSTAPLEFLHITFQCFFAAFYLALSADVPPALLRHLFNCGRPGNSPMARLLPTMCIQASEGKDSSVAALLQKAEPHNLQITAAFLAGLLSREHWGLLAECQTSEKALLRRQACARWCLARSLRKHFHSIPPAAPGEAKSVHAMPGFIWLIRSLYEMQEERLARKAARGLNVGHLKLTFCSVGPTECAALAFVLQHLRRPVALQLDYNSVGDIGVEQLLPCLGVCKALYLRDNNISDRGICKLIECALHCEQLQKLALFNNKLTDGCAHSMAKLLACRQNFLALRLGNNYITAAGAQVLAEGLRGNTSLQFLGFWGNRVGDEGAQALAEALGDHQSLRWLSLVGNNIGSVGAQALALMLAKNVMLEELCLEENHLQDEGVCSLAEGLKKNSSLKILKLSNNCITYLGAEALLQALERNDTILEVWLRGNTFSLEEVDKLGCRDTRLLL

For `C#CCSc1nc2sc3c(c2c(=O)n1C)CCC3`, the EC50 [1] was 2.72 µM (active) and the IC50 [2] was 6.45 µM (active).

With `CC(=O)n1cc(N(C(=O)CCl)c2ccc(C)cc2)c2ccccc21` the IC50 (HEK293 [3]) was 3.22 µM (active), the EC50 (BJ [4]) was 5.27 µM (inconclusive) and the EC50 (Protein RecA) was 248 nM (active). For the same molecule, the EC50 (HEK293 [5]) was 16.2 µM (active), the IC50 (HEK293 [6]) was 5.38 µM (active) and the EC50 [7] was > 20 µM (inactive). The IC50 [8] was 14.5 µM (not active), the IC50 (HEK293 [9]) was 11.5 µM (active) and the AC50 [10] was 2.53 µM (active). The EC50 (BJ [11]) was 2.65 µM (inconclusive), the EC50 (BJ [12]) was 812 nM (inconclusive) and the CC50 [13] was 830 nM (active). For the same molecule, the IC50 [14] was > 64.6 µM (inactive), the EC50 [15] was 1.2 µM (active) and the IC50 [16] was 1.3 µM (active). The IC50 (Melanocortin receptor 4) was > 64.6 µM (inactive) and the IC50 (HEK293 [17]) was > 20 µM (inactive).

For `COC(=O)c1cc2c(s1)-c1ccc(OC)cc1CC2`, the IC50 (HEK293 [18]) was > 22.5 µM (inactive), the EC50 [19] was 9.47 µM (active) and the EC50 (H4) was 46.2 µM (active). For the same molecule, the IC50 [20] was > 67.5 µM (inactive) and the EC50 [21] was 18.7 µM (active).
